In patent US11123359B2, “Methods and materials for treating hematological malignancies” (Mayo Foundation for Medical Education and Research, priority 2013, dated 2021):
[nps] = N3'-P5' thiophosphoramidate linkage (3'-amino-3'-deoxy nucleosides); {Palm} = O-[2-hydroxy-3-(hexadecanoylamino)propyl] group (palmitoyl lipid)

Columns and labels:
[1] = test system: patients with high or intermediate-2 risk myelofibrosis; assay: Investigator-sponsored single-center clinical study (NCT01731951): responses by International Working Group criteria; assay type: in vivo, human
Experimental: (§1) In an investigator-sponsored single-center study (ClinicalTrials.gov, Identifier: NCT01731951), imetelstat sodium was administered to patients with high or intermediate-2 risk myelofibrosis. Adverse events were monitored by common terminology criteria (Version 4.03), and responses were monitored by the International Working Group criteria. Eligibility criteria included platelets≥50×10^9/L.
(§2) Imetelstat sodium was administered by a 2-hour intravenous infusion (9.4 mg/kg) every three weeks (cohort A) or weekly×3 followed by every three weeks (cohort B). In addition, patient samples were screened for mutations in ASXL1, SRSF2, SF3B1, and U2AF1 by DNA sequencing. Quantitative PCR was used to measure JAK2V617F burden (assay sensitivity 0.01%). Laboratory correlative studies included analyses of granulocyte telomere length, mononuclear cell telomerase activity, and the presence of human telomerase reverse transcriptase (hTERT) isoforms.
(§3) Thirty-three patients were accrued. The first 18 patients who were enrolled and followed for a minimum of three months or discontinued were assessed herein: eleven for cohort A, and seven for cohort B; 44% primary myelofibrosis, 33% post-PV myelofibrosis and 22% post-ET myelofibrosis. The median age was 68 years, and the baseline risk was high in 56% of the patients and intermediate-2 in 44% of the patients. Seven patients were transfusion-dependent. Median spleen size was 13 cm, and eleven patients had constitutional symptoms. Karyotype was abnormal in seven patients, and 89% were JAK2-mutated. Fifteen patients (83%) were previously treated, including seven with a JAK inhibitor and three with pomalidomide.

[2] = test system: patients with high or intermediate-2 risk myelofibrosis; assay: Clinical study (NCT01731951): adverse events by common terminology criteria (Version 4.03); assay type: in vivo, human
Experimental: as §1, §2, §3

[3] = test system: human telomerase reverse transcriptase (hTERT) isoforms; assay: Laboratory correlative study: human telomerase reverse transcriptase (hTERT) isoforms; assay type: in vivo; conditions: treated myelofibrosis patients
Experimental: as §2

[4] = test system: granulocyte telomere length; assay: Laboratory correlative study: granulocyte telomere length; assay type: in vivo, human; conditions: treated myelofibrosis patients
Experimental: as §2

[5] = test system: mononuclear cell telomerase activity; assay: Laboratory correlative study: mononuclear cell telomerase activity; assay type: in vivo, human; conditions: treated myelofibrosis patients
Experimental: as §2

[6] = first 18 patients, 9.4 mg/kg iv
[7] = cohort A (9.4 mg/kg every three weeks)
[8] = cohort B (9.4 mg/kg weekly x3 followed by every three weeks)

imetelstat: telomerase inhibitor; synthetic lipid-conjugated, 13-mer oligonucleotide N3′ P5′-thio-phosphoramidate (DNA TAGGGTTAGACAA; listed as DNA, chemistry not fully specified)
likelihood of complete or partial remission ([1]; ASXL1-mutated cases among the 33 study patients): 0% | likelihood of complete or partial remission ([1]; ASXL1-unmutated cases among the 33 study patients): 36%

5′-[O-[2-hydroxy-3-[(1-oxohexadecyl)amino]propyl] phosphorothioate]-d(3′-amino-3′-deoxy-P-thio)(T-A-G-G-G-T-T-A-G-A-C-A-A) (SEQ ID NO:1) sodium salt (13) (TAGGGTTAGACAA; all [nps], 5' {Palm}*, sugars by position and methylation of C not given here; 3'-amino-3'-deoxy nucleosides, sodium salt) [imetelstat sodium, sodium salt of imetelstat, a synthetic lipid-conjugated, 13-mer oligonucleotide N3′ P5′-thio-phosphoramidate]
complete molecular responses ([1]; CR patients, U2AF1Q157P and 10% JAK2V617F, SF3B1K666E and 50% JAK2V617F): two | reduction in U2AF1 469_insAGTATG mutation ([1]; a third CR patient): > 50% | patients with leukocytosis who normalized their count or had a >50% reduction ([1]; among thirteen patients with leukocytosis): 77% | CR patients transfusion-dependent at baseline who became transfusion-independent ([1]; first 18 patients): Two | complete or partial resolution of leukoerythroblastosis ([1]; first 18 patients): 61% | overall response rate ([1]; first 18 patients, 9.4 mg/kg 2-hour intravenous infusion, cohorts A and B): 44% | CR patients with reversal of bone marrow fibrosis and recovery of normal megakaryocyte morphology [1, 6]: 22% | partial response (PR), number of patients [1, 6]: 1 patients | patients who met the bone marrow and peripheral blood morphologic criteria for complete response (CR) or partial response (PR) [1, 6]: 28% | patients with clinical improvement ([1]; first 18 patients, pending validation of response duration and resolution of drug-induced grade-1 thrombocytopenia): three | patients achieving CR ([1]; six patients with a spliceosome mutated genotype): 50% | patients achieving CR ([1]; twelve patients with an unmutated spliceosome genotype): 8% | grade-3 anemia [2, 7]: 9% | grade-3 thrombocytopenia [2, 7]: 27% | grade-4 treatment-related adverse events [2, 7]: no grade-4 treatment-related adverse events | grade-3 anemia [2, 8]: one | grade-3 neutropenia [2, 8]: one | grade-3 thrombocytopenia [2, 8]: one | grade-4 thrombocytopenia [2, 8]: 29% | dose reduction necessary because of grade 3 or 4 myelosuppression ([2]; first 18 patients): 11% | patients remaining on treatment ([2]; median follow-up of 3.2 months, first 18 patients): 89% | grade-3/4 myelosuppression ([2]; patients with an unmutated spliceosome genotype): 25% | grade-3/4 myelosuppression ([2]; spliceosome-mutated patients): 67% | effect on hTERT isoform pattern [3]: alteration of the hTERT isoform pattern | effect on telomere length [4]: shortening of telomere length | effect on telomerase activity [5]: suppression of telomerase activity
